“Also recorded” adds a separate entry of the source. Where a name gives a salt, the structure may show the parent alone. Peptide text beside a SMILES is read from it. * marks the point of attachment. Cbz = O=C(OCc1ccccc1)*; CH2F = FC*

Series [1] relates to BCP-ALL-cell lines (Tanoue, Reh, Nalm6). Description: Apoptosis induction in BCP-ALL-cell lines. As to conditions: D,L-methadone alone; 120 h. The class given is cell-based, human.
The test system of series [2] is caspases, PARP, XIAP, Bcl-xL in glioblastoma cells A172. Description: Western blot of apoptosis effectors in A172. The class given is cell-based.
In series [3] the test system is apoptosis pathways in glioblastoma-initiating stem cells. Description: Western blot of apoptosis pathways in glioblastoma-initiating stem cells. The class given is cell-based. Particulars: 3 μg/mL D,L-methadone + 0.1 μg/mL doxorubicin; 144 h.
The test system of series [4] is leukemia cancer cells (Nalm-6), pancreatic cancer cells (Colo357), ovarian cancer cells (A2780). Description: Sensitization for etoposide or cisplatin treatment. The series is classed as cell-based. As to conditions: 0.03 μg/mL etoposide or 0.3 μg/mL cisplatin; D,L-methadone 10, 3, 1 μg/mL; 120 to 144 h.
The next series relates to pre-B-ALL-SCID. The series is described as follows: Apoptosis induction in xenograft-derived BCP-ALL cells. The class given is cell-based, human. Particulars: therapeutic concentrations of D,L-methadone alone; moderate opioid-receptor level.
Series [5] can be described thus: Tolerability (body weight) in U87MG xenograft mice. As to conditions: D,L-methadone 60 to 240 mg/kg/d.
For series [6], the system named is human T cell leukemia, human acute myeloid leukemia, human B cell precursor leukemia, human B cell leukemia. Description: Apoptosis in different leukemia cells, D,L-methadone plus cisplatin. The class given is cell-based.
Series [7] relates to glioblastoma cell line A172. Description: Doxorubicin uptake and efflux, A172. Particulars: 0.3 μg/mL doxorubicin. The class given is cell-based.
In series [8] the test system is caspase-8, -9, -3, PARP, XIAP, Bcl-xL in JIMT-1 cells. The series is described as follows: Western blot of apoptosis effectors in JIMT-1. The series is classed as cell-based, human. Particulars: D,L-methadone 10, 3, 1 μg/mL + 0.015 μg/mL doxorubicin; 96 h.
The test system of series [9] is BCP-ALL-cell line Tanoue. Description: Doxorubicin uptake and efflux, Tanoue. The class given is cell-based, human.
For the next series, the system named is U87MG glioblastoma. The series is described as follows: U87MG glioblastoma xenograft tumour growth. The series is classed as in vivo, nude-mice. As to conditions: days 19 to 33.
Series [10] in a line: Tolerability (body weight, maximum tolerated dose) in ALL-SCID6 xenograft mice. Particulars: same regimen as tumour growth study.
The test system of series [11] is BCP-ALL-cell line Tanoue. The class given is cell-based, human. As to conditions: for effect on apoptosis rates of combination treatment with D,L-methadone and doxorubicin: 3 μg/mL D,L-methadone + 0.06 μg/mL doxorubicin, 60 μg/mL naloxone, 200 μM IBMX or PTX.
The next series relates to glioblastoma cells A172. The series is described as follows: Apoptosis / cell death in glioblastoma cells A172. The class given is cell-based. Particulars: for effect on apoptosis induced by combination treatment with D,L-methadone and doxorubicin: 100 μg/mL naloxone or 25 μM IBMX, 3 μg/mL D,L-methadone, 0.3 μg/mL doxorubicin, 120 h.
Series [12] relates to opioid receptor on promyelocytic leukemia cell line HL60. Description: Opioid receptor expression, HL60. Particulars: 0.3 μg/mL cisplatin; 24 h. The series is classed as cell-based, human. As to the method: (§1) Cells were washed in PBS supplemented with 1% FCS, centrifuged and resuspended in PBS/1% FCS containing naloxone-fluoresceine (0.05 mM, Invitrogen) (Hedin et al., 1997). After 30 min of incubation at RT, the cells were washed twice with PBS/1% FCS, centrifuged and resuspended in icecold PBS/1% FCS. Flowcytometry analysis was performed using FACSCalibur (BD, Heidelberg, Germany).
After staining of cisplatin-treated (+Cisplatin) and untreated cells (−Cisplatin) with naloxone-fluoresceine relative fluorescence intensities were determined flowcytometrically. 2.1-fold increase in opioid receptor expression is shown after subtracting the cells autofluorescence.

For series [13], the system named is Pancreatic cancer cells Colo 357. Description: Cell death in pancreatic cancer cells. The class given is cell-based.
Series [14] relates to A2780 ovarian cancer cells. The series is described as follows: Cell death in A2780 ovarian cancer cells. The class given is cell-based. As to conditions: 2 μg/mL cisplatin alone; 144 h.
A further series has as its system ALL-SCID6 xenograft. Description: Patient-derived ALL-xenograft tumour growth. As to conditions: D,L-methadone orally day 1-76, 20 up to 120 mg/kg/day; doxorubicin 3 mg/kg i.v. day 46, 53, 60, 76. The class given is in vivo, NOD/SCID/IL2ry null (NSG) mice.
Series [15] concerns opioid receptor on glioblastoma cell line A172. Description: Opioid receptor expression, A172. The class given is cell-based. Particulars: 0.1 μg/mL doxorubicin; 106 h. How it is done: as §1
(A) The glioblastoma cell line A172 was treated for 106 h with 0.1 μg/mL doxorubicin. After staining of doxorubicin-treated (doxorubicin) and untreated cells with naloxone-fluorescein (naloxone) relative fluorescence intensities were determined flowcytometrically. (B) Tabular summary of untreated and doxorubicin control cells, naloxone treated cells, whereas D(naloxone-control) represents the median fluorescence intensities after subtracting the cells' autofluorescence (control).

In series [16] the test system is Trastuzumab resistant breast cancer cells JIMT-1. The series is described as follows: Apoptosis / cell death in JIMT-1 breast cancer cells. The series is classed as cell-based, human.
Series [17] concerns opioid-receptors on BCP-ALL-cell line Tanoue. The series is described as follows: Flow cytometric cell surface opioid-receptor expression, Tanoue. The series is classed as cell-based, human. As to conditions: 0.06 μg/mL doxorubicin; 96 h. As to the method: as §1
(A) Doxorubicin enhances opioid receptor expression on the cells' surface. The BCP-ALL-cell line Tanoue was treated for 96 h with 0.06 μg/mL doxorubicin. After staining of doxorubicin-treated (+Doxo) and untreated cells (−Doxo) with naloxone-fluoresceine relative fluorescence intensities were determined flowcytometrically. X-fold increase in opioid receptor expression is shown after subtracting the cells' autofluorescence (−Doxo) and doxorubicin fluorescence (+Doxo).

A short description of series [18]: Serum concentrations in ALL-SCID6 xenograft mice. As to conditions: male, NOD/SCID/IL2ry null (NSG), mouse, in vivo, 3 mg/kg.
A further series has as its system glioblastoma cells. Description: Apoptosis / cell death in glioblastoma cells (opioid comparison, naloxone). The series is classed as cell-based. Particulars: 60 μg/mL naloxone, 3 μg/mL D,L-methadone, 0.1 μg/mL doxorubicin; 120 h and 144 h.
Series [19] has as its system caspase-2, caspase-9, caspase-3, PARP, XIAP, Bcl-xL in BCP-ALL-cell line Tanoue. Description: Western blot analysis of apoptosis effectors in Tanoue. The class given is cell-based, human. As to conditions: 60 μg/mL naloxone; 96 h.

With `CCC(=O)C(CC(C)N(C)C)(c1ccccc1)c1ccccc1` (racemic) [D,L-methadone, D,L-methadone hydrochloride], the cell death induction result in series [1] is given as “only be killed slightly”; in the series with pre-B-ALL-SCID, “only be slightly killed”; in series [6] (D,L-methadone alone (−CDDP)) it was “only be killed slightly”. For the same compound, the caspases activation entry in [2] (D,L-methadone 3, 1 μg/mL + 0.1 μg/mL doxorubicin, 144 h) is listed as “restored deficient caspases activation by doxorubicin”; in series [8], “restored deficient caspases activation by doxorubicin”. In [3], the “activation of apoptosis pathways” value is given as “reversed deficient activation of apoptosis pathways by doxorubicin”. For the same compound, the “sensitization for etoposide or cisplatin treatment” value in series [4] is on record as “sensitizes”. The same compound showed a body weight loss in [5] of 9%. Moreover, the doxorubicin efflux result is given as “inhibit the efflux” in series [7]; “reduced the doxorubicin efflux strongly” with BCP-ALL-cell line Tanoue [9] (8 h and 24 h after removing doxorubicin). The doxorubicin uptake entry in [7] (10 μg/mL D,L-methadone) was “enhance the uptake”; in the series with BCP-ALL-cell line Tanoue [9] (co-incubation with 0.3 μg/mL doxorubicin, 24 h (0 h)), “enhanced doxorubicin concentration in the cells”. Moreover, the “optimum T/C value” in the series on U87MG glioblastoma (D,L-methadone orally daily, 60 to 120 to 240 mg/kg/d bid) stood at 49%. Also, the “tumour size vs vehicle” value in the series with U87MG glioblastoma is recorded as “significantly reduced tumour size”. For the same compound, the body weight changes in [10] is on record as −8%.
Turning to `CC(C)Cn1c(=O)n(C)c(=O)c2[nH]cnc21` [IBMX, 3-Isobutyl-1-methylxanthine], the “effect on doxorubicin-induced apoptosis” value in the series on BCP-ALL-cell line Tanoue [11] (200 μM IBMX, 0.06 μg/mL doxorubicin, 96 h) is “decreased doxorubicin-induced apoptosis”. Besides, the “effect on apoptosis rates of combination treatment with D,L-methadone and doxorubicin” value (“effect on apoptosis rates” for short) in the series with BCP-ALL-cell line Tanoue [11] (96 h) is “strongly reduced the apoptosis rates”. Also, the “effect on apoptosis induced by combination treatment with D,L-methadone and doxorubicin” value in the series on glioblastoma cells A172 (144 h) was “strongly reduced apoptosis induction”.
For the compound `N.N.[Cl][Pt][Cl]` [cisplatin], the “increase in opioid receptor expression” value in [12] worked out at 2.1 fold. Also, the cell death came to 60% in series [13] (10 μg/mL alone, 120 h); 70% in [13] (10 μg/mL cisplatin alone, 144 h); 90% in series [14].
As for `COc1cccc2c1C(=O)c1c(O)c3c(c(O)c1C2=O)C[C@@](O)(C(=O)CO)C[C@@H]3O[C@H]1C[C@H](N)[C@H](O)[C@H](C)O1` [doxorubicin], the tumour growth inhibition result with ALL-SCID6 xenograft is on record as “significant inhibition of tumour growth”. Further, in series [15], the “increase in opioid receptor expression” value is reported as 6 fold. Moreover, the cell death in series [16] (0.1 μg/mL doxorubicin alone, 120 h) worked out at 70%; with glioblastoma cells A172 (1 μg/mL doxorubicin alone, 144 h) it was 80%. Further, the opioid-receptor expression result in [17] is reported as “strongly increased opioid-receptor expression”. For the same compound, the body weight changes in series [10] is recorded as −4%. The “serum concentrations of doxorubicin” value in series [18] was in the range of 156 to 198 ng/mL.
For the compound `C=CCN1CC[C@]23c4c5ccc(O)c4O[C@H]2C(=O)CC[C@@]3(O)[C@H]1C5` [naloxone], the “effect on activation of caspase-9, caspase-3 and cleavage of PARP by combination treatment” value in [2] (100 μg/mL naloxone, 120 h) is “strongly reduced”. For the same compound, the “effect on apoptosis rates” value with glioblastoma cells was “strongly reduced the apoptosis rates”. The “effect on apoptosis induced by combination treatment with D,L-methadone and doxorubicin” value was “strongly reduced apoptosis; also recorded: strongly inhibits apoptosis induction” in series [16] (100 μg/mL naloxone, 10 μg/mL D,L-methadone, 0.01 μg/mL doxorubicin, 96 h) and “strongly reduced apoptosis” in the series on glioblastoma cells A172 (144 h). Further, the “effect on caspase activation and PARP cleavage by D,L-methadone in addition to doxorubicin” value in [19] was “drastically reduced the activation of caspase-9, caspase-2 and caspase-3”.
As for `CC(C)[C@H](NC(=O)OCc1ccccc1)C(=O)N[C@@H](C)C(=O)N[C@@H](CC(=O)O)C(=O)CF` [zVAD.fmk, benzoylcarbonyl-Val-Ala-Asp-fluoromethylketone] (Cbz-Val-Ala-Asp-CH2F), the “effect on cell death after combination treatment with D,L-methadone and doxorubicin” value in the series with BCP-ALL-cell line Tanoue [11] (50 μM zVAD.fmk pre-incubation, 0.06 μg/mL doxorubicin, 120 h) was “strongly decreased cell death”. The “effect on apoptosis induced by D,L-methadone in addition to cisplatin” value in series [13] (50 μmol/L zVAD.fmk, cisplatin 0.7 or 0.5 μg/mL) is reported as “almost completely inhibited apoptosis”. Moreover, the “effect on apoptosis induced by D,L-methadone in addition to oxaliplatin” value in series [13] (50 μmol/L zVAD.fmk, oxaliplatin 3 or 2 μg/mL) was “almost completely inhibited apoptosis”. Moreover, in [6] (zVAD.fmk pre-incubation), the “effect on cell death after combination treatment with D,L-methadone and cisplatin” value is “strongly decreased cell death”. Also, the “effect on apoptosis induced by cotreatment of D,L-methadone and doxorubicin” value is on record as “blocks apoptosis” in [16] (50 μmol/L zVAD.fmk, 0.015 μg/mL doxorubicin, 96 h, 120 h); “blocks apoptosis” with glioblastoma cells A172 (50 μmol/L zVAD.fmk, 0.1 μg/mL doxorubicin, 120 h and 144 h).
Take pertussis toxin [PTX]: the “effect on apoptosis rates” value in the series on BCP-ALL-cell line Tanoue [11] (96 h) was “strongly reduced the apoptosis rates”.

(Values after patent US11052082B2 (priority 2012, dated 2021).)
